# In patent publication US20170172959A1, “D-SERINE FOR THE TREATMENT OF VISUAL SYSTEM DISORDERS” (Allergan, Inc., priority 2011, published 2017):
# “Also recorded” adds a separate entry of the source.
# What was measured:
# [1] = tested on: primary visual cortex of adult rats; experiment: LTP in visual cortex slice (fEPSP amplitude after theta burst stimulation); type: cell-based; conditions: adult Sprague Dawley rat visual cortex slices; compound infused 15 minutes before LTP induction; LTP values at 30 minutes after induction; FIG. 1
# Method: LTP in Visual Cortex Slice: Following decapitation of the rat, the brain was rapidly removed and immersed in ice-cold artificial cerebrospinal fluid (ACSF) containing 124 mM NaCl, 3 mM KCl, 1.25 mM KH2PO4, 3.4 mM CaCl2, 2.5 mM MgSO4, 26 mM NaHCO3, and 10 mM D-glucose. A block of visual cortex was created by removing the frontal 2/3 portion of the brain and the cerebellum. Coronal visual cortex slices of 375 μm were prepared from adult Sprague Dawley (SD) rats using a vibratome (VT 1000 S, Leica). The slices were maintained in an interface recording chamber perfused with preheated ACSF. Slices were continuously perfused with this solution at a rate of 1.00-1.50 ml/min while the surface of the slices was exposed to warm, humidified 95% O2/5% CO2 and maintained at 31±1° C. Visual cortex slices were allowed to recover for 1 hr before recording began. […] This was repeated 2 additional times with a 1 minute intertrain interval, and the level of LTP was recorded for at least 30 min. Changes in amplitude of the synaptic response were used to measure the extent of LTP because it was determined to be the more consistent parameter than the slope of the response. […] Statistical comparisons were done with LTP values recorded at 30 minutes after induction.
# [2] = tested on: slices of kitten visual cortex; conditions: Neuroscience Letters 303 (2001) 95-98; cited from earlier work
# [3] = tested on: blue-light treated Long-Evans rats; experiment: Contrast sensitivity by sweep VEP in rats with retinal damage induced by blue-light exposure; type: in vivo, rat; conditions: 100 or 600 mg/kg injected, saline control, cross-over; measured 30 minutes after treatment; spatial frequency 0.575 cpd; sixteen (600 mg/kg) and fifty weeks (100 mg/kg) after blue-light treatment; FIG. 3
# Method: Two doses of D-serine were tested and vehicle (saline) was used as a control. Half of the rats were injected with either 100 or 600 mg/kg D-serine and the other half with saline in the first test; cross-over exposure took place one week later; the spatial frequencies were fixed at 0.575 cycles per degree (cpd). In FIG. 3, the mean values of contrast sensitivity are shown for rats treated with D-serine or saline, with a baseline taken prior to treatment (“pre”) and the contrast sensitivity measured 30 minutes after treatment (“post”).
# Sweep visually evoked potential (sweep VEP, sVEP), which was first introduced by Regan in 1973, has become an important technique to measure visual function (VF). It is an objective method that can be used to assess contrast sensitivity (CS) in infants, young children and people with special needs. It was adapted to measure CS in animals.
# VEP recording: The recording electrodes were permanently implanted into the right visual cortex of Long Evans rats at lambda and 4.5 mm lateral to the midline, to a depth of 800 microns (layer III/IV). […]
# Visual stimuli: Stimuli were presented on a CRT computer monitor and consist of full-field sine-wave gratings at fixed special frequency (0.5, 0.575 or 0.65 cpd in FIG. 1 and 0.575 cpd in FIG. 2), reversing at 6.25 Hz. […] Contrast sensitivity (CS) is calculated as 1/CT.
smiles,measurement,setting,value
N[C@H](CO)C(=O)O [D-serine],long-term potentiation (LTP) in the primary visual cortex,[1],dose-dependently facilitates long-term potentiation (LTP); also recorded: significantly enhanced the LTP
same,LTP enhancement by D-serine alone,[2],did not enhance LTP
same,effect on LTP suppression by the co-agonist site antagonist 7-chlorokynurenic acid,[2],only produced a reversal of the suppressant effects
same,contrast sensitivity,[3],improved the contrast sensitivity; also recorded: dose-dependent improvement in contrast sensitivity; also recorded: enhances contrast sensitivity and visual function
